Data taken from US20260097022A1, “COMPOUNDS AND USES THEREOF” (Integrated Biosciences, Inc., priority 2023, published 2026).

Test system: etoposide-treated IMR-90 cells
Experiment: Etoposide-induced senescence model, resazurin cell viability (screen and dose-response)
Format: cell-based, human
Details: for senolytic activity in screen: 3 days; for Therapeutic Index (TI): etoposide-induced senescence model, ratio of IC50 values between etoposide- and DMSO-treated IMR-90 fibroblasts
Description: Cell culture. Human lung fibroblast (IMR-90) cells were obtained from ATCC (CCL-186) and passaged less than 10 times (less than 30 population doublings) for all experiments described in this example, with the exception of high-passage cells used in the model of replicative senescence (see the section on Replicative senescence below). Cells were cultured in growth media comprising Eagle's Minimum Essential Medium (EMEM: ATCC 30-2003) supplemented with 10% fetal bovine serum (FBS: Thermo Fisher 16140071) and 1% penicillin-streptomycin (Thermo Fisher 15070063). Cells were incubated in a humidity-controlled incubator at 37° C., with 5% CO2. Cells were detached using trypsin-EDTA (0.05%; Gibco 25300120).
Etoposide-induced senescence. IMR-90 cells were cultured as described above. At between 30 to 50% confluence, the media was replaced with complete growth media containing vehicle (0.5% dimethyl sulfoxide: DMSO, MilliporeSigma D5879) or complete growth media containing 50 μM etoposide (prepared as a 1:200 dilution of a 10 mM stock solution in DMSO; etoposide, MilliporeSigma E1383). Cells were treated for 2 days, after which the media was replaced with fresh growth media and cells were allowed to recover for 4 days. Cells were then plated as described below.
Chemical screening. For all screening experiments. 99 μL of cells were plated into each well of a 96-well clear flat-bottom, black polystyrene tissue-culture-treated plate (Corning 3904) at a density of ˜10+ cells/well. Plates were incubated overnight for adhesion. The day after plating. 1 μL of each compound, prepared as either a 1 mM stock solution in DMSO (10 μM final concentration screen) or 0.1 mM stock solution in DMSO (1 μM final concentration screen), was added to each well using an Agilent Bravo liquid handler. A built-in slow mixing step involving aspirating and dispensing was used to enhance distribution of the added compounds in solution. Cells were incubated for 3 days, after which resazurin (MilliporeSigma R^7017) was added to each well to a final concentration of 0.15 mM. After an additional 1 day of incubation, the fluorescence excitation/emission at 550/590 nm was read using a SpectraMaxR M3 plate reader and manufacturer software (SoftMax Pro R 6). Experiments were performed in biological duplicate.
Three-fold serial dilutions of compound were prepared in DMSO, then added to cell plates (final concentration of DMSO. 1%). Cell viability was then assayed as detailed above, and resazurin fluorescence values were linearly interpolated with respect to values from empty and positive control (non-treatment) wells. Experiments were performed in biological duplicate each on two independent occasions. When possible, chemical stocks from commercial suppliers were used: econazole nitrate (Cayman Chemical 20223), artenimol (Cayman Chemical 19846), and ABT-263 (Cayman Chemical 11500) were from Cayman Chemical, and dehydrodeguelin was aliquoted from the screening library.
Calculation of cellular viability values in dose-response curves. […] For each sample, the fluorescence intensity value was normalized by the mean of two untreated control values. Cellular viability values are therefore indicated as fractions of the cellular viability of untreated controls. Vehicle (1% DMSO) control values are included in each dose-response curve. Experiments were performed in biological duplicate each on two independent occasions.
Calculation of baseline cellular viability values. […] Additionally, baseline cellular viability values were calculated for untreated cells at the start of the experiment. Resazurin was added to a final concentration of 0.15 mM on the day of seeding (corresponding to day 0 in FIG. 7).

[1] = 10 μM, active: control viability >0.5, Snc/control ratio <0.7

Row | Structure (SMILES) | Therapeutic Index (TI) | also measured
1 | CN(C)CC#Cc1ccc(OCCCc2sc(N3CCc4cccc(C(=O)Nc5nc6ccccc6s5)c4C3)nc2C(=O)O)c(F)c1 [A-1155463, reference compound] | – | senolytic activity in screen [1]: active
2 | Cc1c(-c2ccc(N3CCc4cccc(C(=O)Nc5nc6ccccc6s5)c4C3)nc2C(=O)O)cnn1CC12CC3CC(CC(C3)C1)C2 [A-1331852, reference compound] | – | senolytic activity in screen (1 μM): inactive; senolytic activity in screen [1]: active
3 | CCOc1ccc(NC(=O)CSc2nc3ccc(NC(=O)c4cccc(C)c4)cc3s2)cc1 [compound 2] | +++ (compounds with a TI of >5 were labeled as +++) | –
4 | COc1ccc(NC(=O)CSc2nc3ccc(NC(=O)c4ccccc4F)cc3s2)cc1 [compound 3] | +++ (compounds with a TI of >5 were labeled as +++) | –
5 | O=C(CSc1nc2ccc(NC(=O)c3ccc(Cl)cc3Cl)cc2s1)Nc1ccccc1 [compound 4] | +++ (compounds with a TI of >5 were labeled as +++) | –
6 | COc1ccc(C(=O)Nc2ccc3nc(SCC(=O)Nc4ccccc4)sc3c2)cc1OC [compound 5] | +++ (compounds with a TI of >5 were labeled as +++) | –
7 | Cc1cccc(C(=O)Nc2ccc3nc(SCC(=O)Nc4ccccc4C)sc3c2)c1 [compound 7] | +++ (compounds with a TI of >5 were labeled as +++) | –
8 | O=C(CSc1nc2ccc(NC(=O)c3ccccc3)cc2s1)NC[C@H]1CCCO1 [compound 8] | +++ (compounds with a TI of >5 were labeled as +++) | –
9 | CCCCOc1ccc(NC(=O)CSc2nc3ccc(NC(=O)c4ccc(C(C)(C)C)cc4)cc3s2)cc1 [compound 9] | +++ (compounds with a TI of >5 were labeled as +++) | –
10 | Cc1ccc(NC(=O)C(C)Sc2nc3ccc(NC(=O)c4ccccc4F)cc3s2)cc1 (stereo not drawn) [compound 10] | +++ (compounds with a TI of >5 were labeled as +++) | –
11 | COc1ccc(C(=O)Nc2ccc3nc(SCC(=O)Nc4ccc(C)cc4C)sc3c2)cc1 [compound 11] | +++ (compounds with a TI of >5 were labeled as +++) | –
12 | COc1ccc(NC(=O)CSc2nc3ccc(NC(=O)c4cccc(OC)c4)cc3s2)cc1 [compound 12] | +++ (compounds with a TI of >5 were labeled as +++) | –
13 | COc1cccc(C(=O)Nc2ccc3nc(SCC(=O)Nc4ccc(C)cc4)sc3c2)c1 [compound 13] | +++ (compounds with a TI of >5 were labeled as +++) | –
14 | CC(C)c1ccc(NC(=O)CSc2nc3ccc(NC(=O)c4ccccc4)cc3s2)cc1 [compound 14] | +++ (compounds with a TI of >5 were labeled as +++) | –
15 | CCC(Sc1nc2ccc(NC(=O)c3ccccc3)cc2s1)C(=O)Nc1ccc(C(C)=O)cc1 (stereo not drawn) [compound 15] | +++ (compounds with a TI of >5 were labeled as +++) | –
16 | COc1ccc(OC)c(NC(=O)CSc2nc3ccc(NC(=O)c4ccccc4C)cc3s2)c1 [compound 16] | +++ (compounds with a TI of >5 were labeled as +++) | –
17 | CC(=O)c1ccc(NC(=O)CSc2nc3ccc(NC(=O)c4ccccc4Cl)cc3s2)cc1 [compound 17] | +++ (compounds with a TI of >5 were labeled as +++) | –
18 | Cc1ccc(C(=O)Nc2ccc3nc(SCC(=O)N4CCc5ccccc54)sc3c2)cc1 [compound 18] | +++ (compounds with a TI of >5 were labeled as +++) | –
19 | Cc1ccccc1C(=O)Nc1ccc2nc(SCC(=O)Nc3ccc(F)cc3)sc2c1 [compound 20] | +++ (compounds with a TI of >5 were labeled as +++) | –
20 | COc1ccccc1C(=O)Nc1ccc2nc(SCC(=O)Nc3ccc(C(C)=O)cc3)sc2c1 [compound 21] | +++ (compounds with a TI of >5 were labeled as +++) | –
21 | CCOc1ccc(NC(=O)CSc2nc3ccc(NC(=O)c4ccccc4Cl)cc3s2)cc1 [compound 22] | +++ (compounds with a TI of >5 were labeled as +++) | –
22 | O=C(CSc1nc2ccc(NC(=O)c3ccccc3Cl)cc2s1)Nc1ccc(F)cc1 [compound 23] | +++ (compounds with a TI of >5 were labeled as +++) | –
23 | Cc1ccc(C(=O)Nc2ccc3nc(SCC(=O)Nc4ccc(C(C)C)cc4)sc3c2)cc1 [compound 24] | +++ (compounds with a TI of >5 were labeled as +++) | –
